Reference: PubChem BioAssay (NCI)
Several values for one entry are separate records, joined by “and”; a condition that tells them apart may be missing. Identical values can stand only once.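 Grown in 96-well plates, cells were treated for 48 hours with each compound at five concentrations. Insufficient inhibition: endpoint recorded as highest concentration tested. GI50: concentration for 50% inhibition of growth. The concentration for full growth arrest is given as TGI.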

Assays:
Test in all cases: DTP human tumour cell line panel, 48 h
[1] = test system: A498 renal
[2] = test system: COLO 205 colon
[3] = test system: SK-MEL-2 melanoma
[4] = test system: HCC-2998 colon
[5] = test system: OVCAR-5 ovarian
[6] = test system: NCI-H226 lung
[7] = test system: NCI-H522 lung
[8] = test system: EKVX NSCLC
[9] = test system: MALME-3M melanoma
[10] = test system: PC-3 prostate

Structure (SMILES)	TGI [1]	TGI [2]	TGI [3]	TGI [4]	TGI [5]	TGI [6]	TGI [7]	TGI [8]	TGI [9]	GI50 [2]	GI50 [3]	GI50 [4]	GI50 [5]	GI50 [6]	GI50 [8]	GI50 [9]	GI50 [1]	GI50 [7]	TGI [10]
COc1cc(Br)c(C=Nc2cccc3ccc(OS(=O)(=O)c4cccc([N+](=O)[O-])c4)cc23)cc1OC	> 100 µM	> 100 µM	> 100 µM	> 100 µM	> 100 µM	84.1 µM	> 100 µM	> 100 µM	> 100 µM										
N.N.N.N.N.N.O=N[O-].[Br-].[Co+3].[Co+3].[OH3+].[OH3+]		> 100 µM	> 100 µM	> 100 µM	> 100 µM	> 100 µM		> 100 µM	> 100 µM	> 100 µM	> 100 µM	58.5 µM	> 100 µM	> 100 µM	74.3 µM	> 100 µM			
Cc1nn(-c2ccccc2)c(-c2ccccc2[N+](=O)[O-])c1CC#N		> 100 µM	> 100 µM	> 100 µM	> 100 µM		> 100 µM	> 100 µM	> 100 µM										
COc1ccc2c(c1)[n+]([O-])c(/C(C)=N/NC(=O)CC#N)c[n+]2[O-]	> 100 µM	> 100 µM	> 100 µM	> 100 µM	> 100 µM	> 100 µM	> 100 µM	> 100 µM	> 100 µM										
Nc1nc(CCC(=O)Nc2cccc(C(F)(F)F)c2)cc(-c2ccc3ccccc3c2)n1	> 100 µM	> 100 µM	> 100 µM	> 100 µM	> 100 µM	> 100 µM	> 100 µM	> 100 µM	> 100 µM										
S=c1nc(-c2cccnc2)[nH][nH]1	> 100 µM	> 100 µM	> 100 µM	> 100 µM	> 100 µM		> 1 µM		> 100 µM										
CCOC(=O)[C@H]1Nc2ccc(OC)cc2C2c3ccccc3CC21 (some centres undefined)	> 100 µM	> 100 µM	> 100 µM	> 100 µM	> 100 µM	> 100 µM	> 100 µM		> 100 µM										
O=C(OC[C@H]1O[C@@H](OC(=O)c2cc(O)c(O)c(O)c2)[C@H](OC(=O)c2cc(O)c(O)c(O)c2)[C@@H](OC(=O)c2cc(O)c(O)c(O)c2)[C@@H]1OC(=O)c1cc(O)c(O)c(O)c1)c1cc(O)c(O)c(O)c1	37.5 µM	46.3 µM	26.4 µM	12.3 µM	52.5 µM	7.98 µM	14.2 µM	70.9 µM											
COC(=O)C1=C(CS(=O)c2ccccc2[N+](=O)[O-])ON(C)C1c1ccccc1 (centres undefined)	> 100 µM	> 100 µM	> 100 µM	82.9 µM	> 100 µM	> 100 µM	38 µM	> 100 µM	> 100 µM										
O=c1ccc(=O)c2c(=O)c3ccccc3c(=O)c1=2	> 100 µM	> 100 µM	> 100 µM	> 100 µM	> 100 µM		> 100 µM	> 100 µM	> 100 µM										
CC(=O)OC1[C@H]2c3cc4c(cc3CN3CCC(=C[C@@H]1O)C23)OCO4 (some centres undefined)		> 100 µM		> 100 µM		> 100 µM	> 100 µM	> 100 µM	> 100 µM										
Cc1c2cc[n+](C)cc2c(C)c2c1[nH]c1ccc(O)c(OCC(F)(F)F)c12	32 µM	12.6 µM	17.6 µM	46.4 µM	30.5 µM	4.08 µM	3.55 µM	20.1 µM	8.47 µM										
C=C1C(=O)OC2/C=C(\C=O)CC/C=C(\C)C(O)C[C@@H]12 (some centres undefined)	22.1 µM	15.3 µM	25 µM	31.7 µM	38.2 µM	43.9 µM	3.41 µM	29.1 µM	22.2 µM										
C[N+]1(C)C/C(=C\c2ccncc2)C(=O)/C(=C/c2ccncc2)C1	> 100 µM	> 100 µM		> 100 µM	> 100 µM		42 µM	> 100 µM	> 100 µM										
CC1(C)C2CCC3(C2)CS(=O)(=O)N2OC231 (centres undefined)	44.5 µM	32.9 µM	39.3 µM	> 100 µM	71.9 µM		26.9 µM	30.3 µM	28.8 µM										
O=[N+]([O-])c1nccn1COCCBr			> 100 µM		> 100 µM	> 100 µM	> 100 µM	> 100 µM	> 100 µM										
CCN(CC)c1ccc2c(c1)Nc1cc(=C(C#N)C#N)c3ccccc3c1=N2	> 100 µM	> 100 µM	> 100 µM	> 100 µM	> 100 µM	> 100 µM	> 100 µM	> 100 µM	> 100 µM										

Structure (SMILES)	TGI [1]	TGI [2]	TGI [3]	TGI [4]	TGI [5]	TGI [6]	TGI [7]	TGI [8]	TGI [9]	GI50 [2]	GI50 [3]	GI50 [4]	GI50 [5]	GI50 [6]	GI50 [8]	GI50 [9]	GI50 [1]	GI50 [7]	TGI [10]
O=C1C2Cc3ccccc3CN2C(=O)N1CCN1CCCC1 (centres undefined)	> 100 µM	> 100 µM	> 100 µM	> 100 µM	> 100 µM	> 100 µM	> 100 µM		> 100 µM										
Cc1cc2c(=O)c3ccccc3[nH]c2c(C(=O)O)c1C	> 100 µM	> 100 µM	> 100 µM	> 100 µM				> 100 µM											
CCOC(=O)COS(=O)(=O)C(F)(F)F	> 100 µM	> 100 µM	> 100 µM	> 100 µM	> 100 µM	> 100 µM	> 100 µM	> 100 µM	> 100 µM										
CCOC(=O)C(=O)Nc1c(C(C)C)cccc1C(C)C	> 100 µM	> 100 µM	> 100 µM	> 100 µM		> 100 µM	> 100 µM	> 100 µM	> 100 µM										
C[C-](O)O.O/C(=C\[C-](O)c1ccccc1)c1ccccc1.O/C(=C\[C-](O)c1ccccc1)c1ccccc1.[Nd+3] (centres undefined)	43.1 µM	36.3 µM	34.4 µM	20.2 µM	33.1 µM	7.93 µM	28.9 µM	55 µM	65.9 µM	14.7 µM	13.1 µM	2.17 µM	12.6 µM	1.24 µM	8.09 µM	16.8 µM	11.7 µM	3.59 µM	
C=C(C=O)CCCC(C)[C@@H]1CCC23CC12CCC1[C@@]2(C)CCC(OC(C)=O)C(C)(C)C2CC(OC2OC(COC(C)=O)C(O)C(O)C2O)[C@]13C (some centres undefined)	13.3 µM	14.4 µM	13.9 µM	13.9 µM	11.8 µM	12.8 µM	1.53 µM	13.7 µM	7.17 µM										
O=C1CCC(O)=C1O	> 100 µM	> 100 µM	> 100 µM	> 100 µM	> 100 µM	> 100 µM	> 100 µM	> 100 µM	> 100 µM										
CCOc1ccccc1NC(=O)CCc1nc(=S)[nH][nH]1		> 100 µM	> 100 µM	> 100 µM	> 100 µM	> 100 µM	> 100 µM	> 100 µM	> 100 µM										
Cc1c(Cl)cccc1NC(=O)CC1C(=O)Nc2ccccc2S1(=O)=O (centres undefined)	28.9 µM		45.9 µM	33.4 µM	41.5 µM	35.1 µM		70 µM	42.4 µM										
c1cc(CNC2C3CCC(C3)C2c2c[nH]c3ccccc23)cc(CNC2C3CCC(C3)C2c2c[nH]c3ccccc23)c1 (centres undefined)		3.03 µM	3.11 µM		3.39 µM and 3.4 µM		2.76 µM	3.34 µM	3.45 µM	1.54 µM									2.7 µM
O=C([CH-]C(=O)C(F)(F)F)c1ccccc1.O=C([CH-]C(=O)C(F)(F)F)c1ccccc1.O=C([CH-]C(=O)C(F)(F)F)c1ccccc1.O=C([CH-]C(=O)C(F)(F)F)c1ccccc1.[Eu+3].c1ccncc1	88.8 µM	> 100 µM			> 100 µM	79 µM	17.9 µM	58.6 µM		28.8 µM			41 µM	15.6 µM	11.4 µM		18.4 µM	2.8 µM	
COC(=O)c1c(-c2ccccc2)sc(-c2cccc3ccccc23)c1C(=O)OC	> 100 µM	> 100 µM	> 100 µM	> 100 µM	> 100 µM	> 100 µM	> 100 µM	> 100 µM	> 100 µM										
C=C=C(C(=O)OC)S(=O)c1ccc([N+](=O)[O-])cc1[N+](=O)[O-] (centres undefined)	> 100 µM	52.7 µM	> 79.8 µM	31.2 µM	> 100 µM	> 100 µM	21 µM	> 100 µM	> 86.2 µM										
CN=C1SC(=Nc2ccc(N(C)C)cc2)N1C	91.9 µM	> 100 µM	76.6 µM	> 100 µM	> 100 µM	> 100 µM	59.3 µM	72.7 µM	> 100 µM										
CC(=O)O[C@@H]1C2C(=O)OC(=O)C2C2CCC[C@]23O[C@H]13 (some centres undefined)	> 100 µM	> 100 µM	> 100 µM	> 100 µM		> 100 µM	> 100 µM		> 100 µM										
CCOC(=O)CC1NC(=O)CS1 (centres undefined)	> 100 µM	16.3 µM		> 100 µM	> 100 µM	48.1 µM		> 100 µM	> 100 µM										
